Assay results: patent publication EP0614464B1, “PEPTIDES AND ANTIBODIES FOR TREATMENT OF RHEUMATOID ARTHRITIS” (PEPTIDE THERAPEUTICS LIMITED, priority 1991, dated 1993)
Ends that are not written are not given here. Peptide text beside a SMILES is read from it.

Assays:
IgA-α1AT complex = assay: HPLC analysis of in vitro dissociation of purified IgA-α1AT complex; assay type: biochemical, human; settings: for HPLC / HPLC %: minimum peptide concentration giving complex : free IgA ratio at 20% (base-line 14%); for HPLC / HPLC minimum / HPLC %: 90 minutes at 37°C; for HPLC minimum: Table 5, minimum concentration giving complex : free IgA ratio at 20% (base-line 14%), >500µM = no complex dissociation at highest concentration tested; for HPLC %: Table 1
Description: The ability of the peptides of the invention to dissociate purified IgA-α1AT complex in vitro was tested as described below. The anti-rheumatic drug D-penicillamine and other synthetic peptides were used as controls. […] The sample was monitored at wavelength 206nm at a flow rate of 1ml/minute with phosphate buffer (0.1M) pH 7.1. […] They represent the ability of the peptides to dissociate the IgA-α1AT complex in vitro. In these experiments, the base-lines level comprises a complex : free IgA ratio of 14% . The minimum concentration of peptide taken to produce a positive dissociation effect is that which results in a complex: free IgA ratio at 20%. In the results tables, all the peptide values are expressed in µMoles.

[1] = system: alternative complement (C3) pathway; assay: Inhibition of C3-activation: preventing IgA-α1AT complex from activating the alternative complement pathway, rabbit erythrocyte haemolysis read-out; assay type: biochemical, human; settings: for C' minimum: Table 5, minimum concentration needed to prevent C3 activation; for C': minimum concentration of peptide needed to prevent C3 activation
Description: Various peptides were tested for their ability to prevent the IgA-α1AT complex from activating the alternative complement (C3) pathway.
The method of measuring the capacity to activate the alternative complement pathway by the non-immune IgA-α1AT complex and the subsequent inhibition of this activation by anti-rheumatic peptides is described below.
This method was based on the method described by Riches and Stanworth, Immunology Letters, 1980, 1, 363,366, with modification to miniaturise it thus allowing the assay to be carried out on microtitre plates.
The initial observation by Platts-Mills and Ishizaka (J Immunol. (1974) 113, 348,358) that low dilutions of fresh normal human serum, from which calcium had been removed by chelation with 10mM EGTA to block the classical complement pathway, caused greater than 90% haemolysis of unsensitised rabbit erythrocytes when incubated at 37°C was employed in this assay.
The non-immune complex IgA-α1AT had been shown in the past to be the only known soluble complex to activate the alternative pathway complement and […] of the rabbit erythrocytes. This inhibition required biologically active complex.
The buffers solutions required in this assay were (a) Total lysis buffer (1% Triton100 in ultra pure water), (b) Alternative pathway complement fixation diluent (APCFD) which was:- • 83 volumes CFD, DH 7.2 (1 oxoid tablet: 100ml UPW) • 10 volumes 0.1M EGTA pH 7.2 • 7 volumes MgCl2 pH 7.2
Blood was obtained by venipuncture from a healthy human individual. The blood was allowed to clot for 1 hour at room temperature and then stored overnight at 4°C. The serum was removed and stored at -70°C in lml aliquots. For use, the serum was defrosted and 100µl of 0.1m EGTA pH 7.2 and 70µl O.lm MgCl2 pH 7.2 was added.
Rabbit red blood cells (RBC) were obtained by venipuncture of a healthy rabbit and collected into 0.1M citrate buffer pH 6.2. The RBC were washed 3 times in citrate buffer and the cells were stored in this buffer which was changed every week. It was possible to store cells in this way for 3 weeks. Peptides
The peptides were synthesised as described in Example 1 and made up in UPW to lmM. They were kept frozen at -70°C prior to use.
This was prepared as previously described in Example 2. It was kept frozen in small aliquots prior to use.
Using a round bottomed welled flexible microtitre plate 100µl neat serum (with added EGTA and MgCl2) was added to the first wells in duplicate. This was double diluted out, with APCFD to give a volume of 50µl well. 8 test wells (+ duplicates) were sufficient. 8 wells were prepared as a positive control - (100µl 1% Triton/UPW). 8 wells were prepared as a negative control - (100µl APCFD (Blank)).
50µl of APCFD was added to the test wells and 50µl of 1% rabbit RBC was added to all wells. The plate was then incubated at 37°C for 30 minutes and then centrifuged for 10 minutes at 2000 rpm.
75µl of the supernatant was carefully removed and plated onto a flat bottom welled microtitre plate. The plates were then read at 410nm interference, 690nm reference. The zero or blank value was calculated as the mean value of negative control wells and using the mean of the positive control wells, the percentage lysis for serum dilutions was calculated. In future assays the serum dilution in which lysis was approx. 80% of Rb RBC was used. This was usually in the range 1:4 - 1:6 dilution (ie. lml serum : 4ml APCFD - 6ml APCFD).
A 1:1 dilution of IgA-α1AT complex was made with twice concentrated APCFD. 100µl of this 1:1 dilution of complex was added to the first wells in duplicate. This was double diluted out with APCFD to give 50 µl per well. 50µl of the predetermined dilution of serum (see (i) above) was added to each well. Positive and negative control wells as described in (a) above and wells containing serum alone were used as controls. The plates were incubated at 37°C for 30 minutes and then centrifuged at 2000 rpm for 1 minute. […]

[2] = system: mouse macrophage cell line (PU 518); assay: Macrophage inhibition assay: IgA-α1AT complex-stimulated release of lysosomal enzymes; assay type: cell-based; settings: concentration needed to prevent 50% release of β-glucoromidase
Description: A mouse macrophage cell line (PU 518) was stimulated to release lysosomal enzymes by the addition of purified human IgA-α1AT complex. The degree to which this release was then inhibited by the peptides or other drugs was investigated, with the degree of inhibition being indicative of activity; the concentration of peptide or other test drugs giving 50% inhibition being recorded. Briefly the method was as follows:
25µl of peptide or drug was double diluted in […] + 10% foetal calf serum (FCS) in a sterile tissue culture 96 well plate. 25µl of IgA-α1AT complex in RPMI 1640 +10% FCS at about 0.2mg/ml was then added to all wells. 50µl of cells at a concentration of 2 x 10^6 cells/ml in RPMI 1640 + 10% FCS was then added to each well.
Control wells of cells alone and cells + IgA-α1AT complex were also prepared. The plate was then gently mixed and incubated overnight (16hr) at 37°C in a 4% CO2 atmosphere. Plates were then centrifuged at 1200 rpm for 10 minutes in a bench top centrifuge.
40µl of supernatant was then taken from each well and added to a 96 well polystyrene assay plate, to which was added 40µl of 160mM acetate buffer (pH 4.3) containing 2mM phenolphthalein-β-D-glucuronic acid. To obtain a standard curve, dilutions of phenolphthalein in acetate buffer from 100-5µg/ml were also added to separate wells in the assay plate.
The plates were then incubated at 37°C for 4 hours before 150µl of 0.2M glycine/NaOH buffer (pH 10.6) containing 0.2M NaCl was added to stop the reaction.
Plates were then shaken for 3 minutes before the optical density at 570nm was read on a plate reader, and the amount of β-D-glucuronic acid released from the cells calculated. The concentration of peptide or drug giving 50% inhibition of release was then noted.
The results for the macrophage inhibition assays are expressed as the concentration needed to prevent 50% release of β-glucoromidase.

[3] = system: alternative complement (C3) pathway; assay: Inhibition of C3-activation: preventing IgA-α1AT complex from activating the alternative complement pathway, rabbit erythrocyte haemolysis read-out; assay type: biochemical, human; settings: Table 5; minimum concentration needed to prevent C3 activation

**Q.** Which “HPLC” value (IgA-α1AT complex; Table 3) does the source give for DGHCKK-NH2 [Peptide 119, DGHCKKnh2] here?
**A.** 10 µM

**Q.** Which results are given for C[C@@H](N)C(=O)N[C@@H](Cc1c[nH]cn1)C(=O)N[C@@H](CS)C(=O)N[C@@H](CCCCN)C(=O)N[C@@H](CCCCN)C(=O)N[C@H](C)C(N)=O [Peptide 210, dAHCKKdAnh2, reference compound] (HELM PEPTIDE1{[dA].H.C.K.K.[dA].[am]}$$$$V2.0)?
**A.** C' minimum [1]: 3.9 µM; HPLC minimum (IgA-α1AT complex): 10 µM

**Q.** With HCKKGE-NH2 [Peptide 151, HCKKGEnh2] as the molecule, how does the “C'” value ([1]; Table 4) read?
**A.** 16 µM

**Q.** What about the “HPLC” value (IgA-α1AT complex; Table 4) of the same molecule?
**A.** 50 µM

**Q.** Which results are given for IQHCKK-NH2 [Peptide 134, IQHCKKnh2]?
**A.** C' ([1]; Table 3): 62 µM; HPLC (IgA-α1AT complex; Table 3): 10 µM

**Q.** Which results are given for HFCKK-NH2 [Peptide 208, HFCKKnh2]?
**A.** C' ([1]; Table 1): 3.9 µM; HPLC % (IgA-α1AT complex): 10 µM

**Q.** EGHCKK-NH2 [Peptide 155, EGHCKKnh2] was tested. Which “C'” value ([1]; Table 3) did it give?
**A.** <2 µM

**Q.** And the “HPLC” value (IgA-α1AT complex; Table 3)?
**A.** 5 µM

**Q.** And the IC50 ([2]; Table 3, 16hr incubation)?
**A.** 60 µM

**Q.** Which “C'” value ([1]; Table 4) does the source give for HCKKE-NH2 [Peptide 150, HCKKEnh2] here?
**A.** 8 µM

**Q.** What about the “HPLC” value (IgA-α1AT complex; Table 4) of the same molecule?
**A.** 50 µM

**Q.** HCKKGGD-NH2 [Peptide 122, HCKKGGDnh2] was tested. Which “C'” value ([1]; Table 4) did it give?
**A.** 31 µM

**Q.** What about the “HPLC” value (IgA-α1AT complex; Table 4) of the same molecule?
**A.** 50 µM

**Q.** Which results are given for “IVLVDNKCKCAR [Peptide 89, reference compound]”?
**A.** C' minimum [1]: 125 µM; HPLC minimum (IgA-α1AT complex): 50 µM

**Q.** How did the “C'” value ([1]; Table 1) turn out when NCCCC[C@H](NC(=O)[C@H](CCCCN)NC(=O)[C@H](CS)NC(=O)[C@@H](N)Cc1c[nH]cn1)C(N)=O [Peptide 132, HCKKnh2] (H-HCKK-NH2) was run?
**A.** 16 µM

**Q.** And the “HPLC %” value (IgA-α1AT complex)?
**A.** 10 µM

**Q.** And the IC50 ([2]; Table 1, 16hr incubation)?
**A.** 60 µM

**Q.** Which results are given for DHCKK-NH2 [Peptide 113, DHCKKnh2]?
**A.** C' ([1]; Table 3): 78 µM; HPLC (IgA-α1AT complex; Table 3): 10 µM; IC50 ([2]; Table 3, 16hr incubation): 70 µM

**Q.** For QHCKK-NH2 [Peptide 133, QHCKKnh2], which “C'” value ([1]; Table 3) is on record?
**A.** 31 µM

**Q.** What about the “HPLC” value (IgA-α1AT complex; Table 3) of the same molecule?
**A.** 10 µM

**Q.** Which “HPLC minimum” value (IgA-α1AT complex) does the source give for N[C@@H](CCC(=O)N[C@@H](CS)C(=O)NCC(=O)O)C(=O)O [Glutathione] here?
**A.** 500 µM

**Q.** And the activity (IgA-α1AT complex; comment in words on Tables 3-5, assay not given, fits the HPLC values)?
**A.** relatively inactive

**Q.** What about the “C' minimum” value [3] of the same molecule?
**A.** 31 µM

**Q.** What does the source list for EHCKK-NH2 [Peptide 154, EHCKKnh2]?
**A.** C' ([1]; Table 3): <2 µM; HPLC (IgA-α1AT complex; Table 3): 5 µM

**Q.** HDCKK-NH2 [Peptide 198, HDCKKnh2] was tested. Which “C'” value ([1]; Table 1) did it give?
**A.** 3.9 µM

**Q.** And the “HPLC %” value (IgA-α1AT complex)?
**A.** 10 µM

**Q.** How did the “C' minimum” value [1] turn out when “HCCGKnh2 [Peptide 147, reference compound]” was run?
**A.** 32 µM

**Q.** What about the “HPLC minimum” value (IgA-α1AT complex) of the same molecule?
**A.** 10 µM

**Q.** What about the IC50 ([2]; Table 5, head prints no unit, b70 says all values of the results tables are in µMoles) of the same molecule?
**A.** 250 µM
